Data as given in the supplement of paper PMC6580486.

How the values were obtained:
[1] = tested on: PCB-495 (human epithelioid sarcoma primary culture)
Protocol: (§1)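 60-agent targeted drug screens (Drug Screen V3 on epithelioid sarcoma cultures PCB490-3/4/5, PCB495, EPS cell lines ESX, VA-ES-BJ, FU-EPS-1 and SkMc myoblasts; PPTI screen v2.1 on human UPS PCB197 and canine UPS S1-12). 384-well plates, 72 h, CellTiter-Glo viability; IC50 by Hill curve fit. 10000 nM = no IC50 achieved (top reported value).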

[2] = tested on: PCB-490-4 (human epithelioid sarcoma primary culture)
Protocol: as §1

[3] = tested on: SkMc
Protocol: as §1

[4] = tested on: PCB-490-3 (human epithelioid sarcoma primary culture)
Protocol: as §1

[5] = tested on: s1-12 (canine undifferentiated pleomorphic sarcoma culture)
Protocol: as §1

[6] = tested on: pcb-00197 (human undifferentiated pleomorphic sarcoma culture)
Protocol: as §1

[7] = tested on: PCB-490-5 (human epithelioid sarcoma primary culture)
Protocol: as §1

[8] = tested on: ESX
Protocol: as §1

[9] = tested on: VA-ES-BJ
Protocol: as §1

[10] = tested on: FU-EPS-1
Protocol: as §1

SMILES | IC50 cell viability [1] | IC50 cell viability [2] | IC50 cell viability [3] | IC50 cell viability [4] | IC50 cell viability [5] | IC50 cell viability [6] | IC50 cell viability [7] | IC50 cell viability [8] | IC50 cell viability [9] | IC50 cell viability [10]
COc1cc2nc(N3CCCN(C)CC3)nc(NC3CCN(Cc4ccccc4)CC3)c2cc1OC | 1.38 µM | 1.82 µM | 150 nM | 3.14 µM | 1.72 µM | 6.05 µM | 6.69 µM | 200 nM | 6.57 µM | 1010 nM
Cc1nc(Nc2ncc(C(=O)Nc3c(C)cccc3Cl)s2)cc(N2CCN(CCO)CC2)n1 [Dasatinib] | > 10 µM | 0.17 µM | 50 nM | 1.27 µM | – | – | 0.39 µM | > 10000 nM | > 10 µM | > 10000 nM
CN1CCc2c(c3ccccc3n2Cc2ccc(C(=O)NO)cc2)C1 [Tubastatin A] | > 10 µM | > 10 µM | > 10000 nM | > 10 µM | – | – | > 10 µM | > 10000 nM | > 10 µM | > 10000 nM
CC(C)(C(=O)NCC(F)(F)C(F)(F)F)C(=O)N[C@@H]1C(=O)Nc2ccccc2-c2ccccc21 | > 10 µM | > 10 µM | 3760 nM | > 10 µM | > 10 µM | > 10 µM | > 10 µM | > 10000 nM | > 10 µM | > 10000 nM
Cc1[nH]c2ccccc2c1CCNCc1ccc(/C=C/C(=O)NO)cc1 [Panobinostat] | 0.23 µM | 0.17 µM | 180 nM | 0.53 µM | – | – | 0.11 µM | 120 nM | 0.02 µM | 150 nM
O=C(O)c1ccc2c(c1)nc(Nc1cccc(Cl)c1)c1ccncc12 [CX-4945] | > 10 µM | 6.52 µM | 1140 nM | > 10 µM | – | – | 1.2 µM | > 10000 nM | > 10 µM | 140 nM
CN[C@@H](C)C(=O)N[C@H](C(=O)N1CCC[C@H]1c1nc(C(=O)c2ccc(F)cc2)cs1)C1CCCCC1 [LCL161] | > 10 µM | > 10 µM | > 10000 nM | > 10 µM | – | – | > 10 µM | 1800 nM | 3.15 µM | > 10000 nM
Clc1ccc(NN=C(c2ccccc2)c2ccccn2)nc1 [JIB-04] | 1.14 µM | 3.73 µM | 1410 nM | > 10 µM | – | – | 1.62 µM | 600 nM | 1.69 µM | 2400 nM
C=CCn1c(=O)c2cnc(Nc3ccc(N4CCN(C)CC4)cc3)nc2n1-c1cccc(C(C)(C)O)n1 [MK-1775] | > 10 µM | > 10 µM | 160 nM | > 10 µM | – | – | > 10 µM | 170 nM | 0.3 µM | 1010 nM
CC1(C)CCC(c2ccc(Cl)cc2)=C(CN2CCN(c3ccc(C(=O)NS(=O)(=O)c4ccc(N[C@H](CCN5CCOCC5)CSc5ccccc5)c(S(=O)(=O)C(F)(F)F)c4)cc3)CC2)C1 [ABT-263] | > 10 µM | > 10 µM | > 10000 nM | > 10 µM | – | – | > 10 µM | > 10000 nM | > 10 µM | > 10000 nM
COCC1(CO)C(=O)C2CCN1CC2 (centres undefined) [APR-246] | > 10 µM | 0.12 µM | > 10000 nM | > 10 µM | – | – | > 10 µM | 130 nM | > 10 µM | > 10000 nM
Nc1nc2c(ncn2COC(CO)CO)c(=O)[nH]1 [Ganciclovir] | > 10 µM | > 10 µM | > 10000 nM | > 10 µM | – | – | > 10 µM | > 10000 nM | > 10 µM | 20 nM
Nc1nc(Nc2ccc(S(N)(=O)=O)cc2)nn1C(=S)Nc1c(F)cccc1F [Cdk1/2 inhibitor III] | 0.42 µM | 1.02 µM | 290 nM | 1.41 µM | – | – | 1.1 µM | 200 nM | 0.13 µM | > 10000 nM
CCOc1cc(C(C)(C)C)ccc1C1=N[C@@](C)(c2ccc(Cl)cc2)[C@@](C)(c2ccc(Cl)cc2)N1C(=O)N1CCN(CCCS(C)(=O)=O)CC1 | > 10 µM | > 10 µM | > 10000 nM | > 10 µM | > 10 µM | > 10 µM | > 10 µM | > 10000 nM | > 10 µM | > 10000 nM
Cc1cc(Nc2cc(N3CCN(C)CC3)nc(Sc3ccc(NC(=O)C4CC4)cc3)n2)n[nH]1 [Tozasertib] | > 10 µM | 3.33 µM | 2620 nM | > 10 µM | – | – | > 10 µM | > 10000 nM | > 10 µM | > 10000 nM
CNC(=O)CN1CCC(Oc2cc3c(Nc4cccc(Cl)c4F)ncnc3cc2OC)CC1 [AZD8931] | > 10 µM | > 10 µM | > 10000 nM | > 10 µM | – | – | > 10 µM | 4750 nM | > 10 µM | > 10000 nM
